Reference: PubChem BioAssay AID2743 (NMMLSC, 2010)
Where “and” joins values, the source holds several entries; their conditions need not be identical. Identical values can stand only once. Calls of active or inactive are those of the source.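 The calls were made as follows: active = fitted half-maximal concentration for change in GFP expression of 33 µM or less; inactive = the rest.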

Experiment: potency of AGP1-GFP expression modulators in yeast, dose response, cell-based, flow cytometry, S. cerevisiae, MLPCN hits (AID 2743)
Settings: S. cerevisiae AGP1-GFP strain, flow cytometry GFP, 3 h; at 33 µM (top of the series)

Compound: COc1cc(C=C2C(=O)c3ccccc3C2=O)cc(OC)c1
- GFP fluorescence (kMESF): 38 kMESF (inactive)

Compound: CCCCCn1c(=O)c(C(=O)Nc2nc3ccccc3[nH]2)c(O)c2ccccc21
- GFP fluorescence (kMESF): 36.9 kMESF (inactive)

Compound: O=C1NC(=O)C(=Cc2ccc(-c3ccc(Cl)cc3)o2)C(=O)N1
- GFP fluorescence (kMESF): 22.3 kMESF (inactive)

Compound: CCc1nc2ccccc2c(=O)n1NC(=O)c1c(O)c2cccc3c2n(c1=O)CCC3
- GFP fluorescence (kMESF): 18.3 kMESF (inactive)

Compound: Cc1cccc(C(=O)NC(=S)NNC(=O)Cc2ccccc2)c1
- GFP fluorescence (kMESF): 37.6 kMESF (inactive)

Compound: Cc1ccc(/C=C/C(=O)c2ccccc(=O)c2O)c(C)c1
- GFP fluorescence (kMESF): 28.9 kMESF (inactive)

Compound: COc1cc(/C=C2\C(=O)ON=C2c2ccccc2)cc(OC)c1OC
- GFP fluorescence (kMESF): 32.3 kMESF (inactive)

Compound: CN1C(=O)/C(=N\OC(=O)c2cccc3ccccc23)c2ccccc21
- GFP fluorescence (kMESF): 38.2 kMESF (inactive)

Compound: CC1=NOC(=O)/C1=C\c1ccc(-c2cc(Cl)ccc2Cl)o1
- GFP fluorescence (kMESF): 42.3 kMESF (inactive)

Compound: CCC(=O)Oc1oc(-c2ccccc2)nc1C=Nc1ccc(C)cc1
- GFP fluorescence (kMESF): 41.9 kMESF (inactive)

Compound: O=C1C=CC(=O)N1c1ccc(N2CCCCC2)cc1
- GFP fluorescence (kMESF): 46.9 kMESF (inactive)

Compound: Cc1c(NC2=C(Cl)C(=O)N(c3ccccc3Cl)C2=O)c(=O)n(-c2ccccc2)n1C
- GFP fluorescence (kMESF): 38.1 kMESF (inactive)

Compound: Cc1ccc(N=c2ssnc2Cl)cc1
- GFP fluorescence (kMESF): 43.2 kMESF (inactive)

Compound: Cc1ccc(NC(=O)c2ccc(Cl)c(N3C(=O)C=CC3=O)c2)cc1
- GFP fluorescence (kMESF): 27.1 kMESF (inactive)

Compound: COc1cc(N2C(=O)C=CC2=O)c(OC)cc1Cl
- GFP fluorescence (kMESF): 33.8 kMESF (inactive)

Compound: Cc1[nH][nH]c(=O)c1C(c1ccc(-c2ccc(Cl)c(Cl)c2)o1)c1c(C)[nH][nH]c1=O
- GFP fluorescence (kMESF): 43.7 kMESF (inactive)

Compound: O=C1c2cccc3c([N+](=O)[O-])ccc(c23)C(=O)N1c1ccccn1
- GFP fluorescence (kMESF): 35.2 kMESF (inactive)

Compound: COc1ccc(/C=C/C(=O)NC(=S)NNC(=O)c2cnccn2)cc1
- GFP fluorescence (kMESF): 38.3 kMESF (inactive)

Compound: Cc1cccc(N=C2NC(=O)/C(=C/C=C/c3ccco3)S2)c1C
- GFP fluorescence (kMESF): 23.3 kMESF (inactive)

Compound: Oc1cc(-c2ccc(N3CCCCC3)nc2)cc2cccnc12
- GFP fluorescence (kMESF): 31.5 kMESF (inactive)

Compound: C/C(=N\NC(=O)c1cc2ccccc2cc1O)c1ccccn1
- GFP fluorescence (kMESF): 47.9 kMESF (inactive)

Compound: O=C(Nc1ccccc1)ON=C1CCCC1
- GFP fluorescence (kMESF): 21.6 kMESF (inactive)

Compound: Oc1c(Br)cc(Br)cc1C=Nc1ccc2[nH]ncc2c1
- GFP fluorescence (kMESF): 37.5 kMESF (inactive)

Compound: CCOC(=O)CSC1=NC(=O)/C(=C/c2ccc(OC)cc2)S1
- GFP fluorescence (kMESF): 43.4 kMESF (inactive)

Compound: Cc1[nH]n(-c2ccccc2)c(=O)c1C(c1ccccc1[N+](=O)[O-])C(C#N)C#N (stereo unspecified)
- GFP fluorescence (kMESF): 36.6 kMESF (inactive)

Compound: O=C1Oc2ccccc2C(=O)/C1=C/c1ccccc1O
- GFP fluorescence (kMESF): 39.4 kMESF (inactive)

Compound: CC(C)Cn1c(=O)c(C(=O)Nc2ccncc2)c(O)c2ccccc21
- GFP fluorescence (kMESF): 16.1 kMESF (inactive)

Compound: CS(=O)(=O)c1sc(C#N)c2c1C(=O)CC(c1ccccc1)C2 (stereo unspecified)
- GFP fluorescence (kMESF): 38.9 kMESF (inactive)

Compound: O=C1NC(=O)N(CCc2ccc(F)cc2)C(=O)/C1=C/c1cccs1
- GFP fluorescence (kMESF): 39.1 kMESF (inactive)

Compound: CC(c1ccccc1)N1C(=O)/C(=C/c2ccncc2)SC1=S (stereo unspecified)
- GFP fluorescence (kMESF): 24.4 kMESF (inactive)

Compound: COc1ccc(OCC(=O)NNC(=S)NC(=O)C2CCCCC2)cc1
- GFP fluorescence (kMESF): 35.6 kMESF (inactive)

Compound: O/C=c1\ccc2cccc3nc(C(F)(F)F)nc1c23
- GFP fluorescence (kMESF): 40.7 kMESF (inactive)

Compound: CCCCC(=O)NNC(=S)NC(=O)c1ccc(C)cc1
- GFP fluorescence (kMESF): 58.2 kMESF (inactive)

Compound: O=C(OCC(=O)N1CCN(C(=O)c2ccco2)CC1)c1cc(-c2ccc(F)cc2)nc2ccccc12
- GFP fluorescence (kMESF): 49.9 kMESF (inactive) and 40 kMESF (inactive)

Compound: O=C(COc1ccccc1)NNC(=S)NC(=O)c1ccccc1
- GFP fluorescence (kMESF): 42.7 kMESF (inactive)

Compound: Cc1ccc(C2=NOC(=O)/C2=C\c2ccc(C)o2)cc1
- GFP fluorescence (kMESF): 32.4 kMESF (inactive)

Compound: CCCCC(=O)NC(=S)NNC(=O)CCc1ccccc1
- GFP fluorescence (kMESF): 28.1 kMESF (inactive)

Compound: CCN(CC)c1ccc(/C=C2/C(=O)c3ccc(C(=O)O)cc3C2=O)cc1
- GFP fluorescence (kMESF): 655 kMESF (inactive)

Compound: CC(C)(C)c1cc(C(c2cccnc2)N2CCN(CCO)CC2)cc(C(C)(C)C)c1O (stereo unspecified)
- GFP fluorescence (kMESF): 42.2 kMESF (inactive)

Compound: Cc1cccc(/C=C/C(=O)c2ccc([N+](=O)[O-])o2)c1
- GFP fluorescence (kMESF): 19.2 kMESF (inactive)

Compound: C/C(=N/NC(=O)c1ccc(C(C)(C)C)cc1)c1ccccn1
- GFP fluorescence (kMESF): 55.7 kMESF (inactive)

Compound: Cc1ccc(NC(=O)CCc2ccccc2)cc1S(=O)(=O)N1CCOCC1
- GFP fluorescence (kMESF): 40.4 kMESF (inactive)

Compound: Cc1[nH]c(-c2ccccn2)nc(=S)c1Cl
- GFP fluorescence (kMESF): 51 kMESF (inactive)

Compound: Cc1ccc(C(=O)NNC(=S)NC(=O)COc2ccccc2)cc1
- GFP fluorescence (kMESF): 39.8 kMESF (inactive)

Compound: O=C(O)c1ccc2c(c1)C(=O)/C(=C/c1ccccc1)C2=O
- GFP fluorescence (kMESF): 40.5 kMESF (inactive)

Compound: C#CCOCCOCCOCCNc1nc(N2CCN(C(=O)CCCCCCCCCCNC(=O)[C@H](CCCCN)n3cc(C)nn3)CC2)nc(N2CCN(C(=O)CCCCCCCCCCNC(=O)[C@H](CCCN=C(N)N)n3cc(C[C@@H](C)CC)nn3)CC2)n1
- GFP fluorescence (kMESF): 43.6 kMESF (inactive)

Compound: Cc1c(C(=O)Nc2nc(-c3ccccn3)cs2)oc2ccccc12
- GFP fluorescence (kMESF): 35.6 kMESF (inactive)

Compound: O=[N+]([O-])c1cc(O)c2ncccc2c1
- GFP fluorescence (kMESF): 42.7 kMESF (inactive)

Compound: COc1ccc(C=C2C(=O)c3ccccc3C2=O)cc1O
- GFP fluorescence (kMESF): 34.7 kMESF (inactive)

Compound: Cn1c(=O)c(C(=O)NNC(=O)c2ccc(Br)cc2)c(O)c2ccccc21
- GFP fluorescence (kMESF): 26.2 kMESF (inactive)

Compound: Cc1cc(O)c(C(=O)/C=C/c2c(F)c(F)c(F)c(F)c2F)c(=O)o1
- GFP fluorescence (kMESF): 21.2 kMESF (inactive)

Compound: CCOc1cc(C=C2C(=O)c3ccccc3C2=O)ccc1OCC(=O)Nc1ccc(C)cc1
- GFP fluorescence (kMESF): 36.1 kMESF (inactive)

Compound: CC(Oc1ccc(Br)cc1)C(=O)Nc1nc(-c2ccccn2)cs1 (stereo unspecified)
- GFP fluorescence (kMESF): 46.5 kMESF (inactive)

Compound: Cc1ccc(/C=N/Nc2ncc(Cl)cc2Cl)s1
- GFP fluorescence (kMESF): 35.6 kMESF (inactive)

Compound: CCN(CC)C(=S)SSC(=S)N(CC)CC
- GFP fluorescence (kMESF): 37.5 kMESF (inactive)

Compound: CC1(C(=O)NC(=S)NNC(=O)c2ccncc2)CCCCC1
- GFP fluorescence (kMESF): 34.2 kMESF (inactive)

Compound: O=C1c2ccccc2C(=O)C2OC12 (stereo unspecified)
- GFP fluorescence (kMESF): 33.7 kMESF (inactive)

Compound: Cc1ccc(S(=O)(=O)N2CC(C(=O)O)=CC[C@H]2c2ccc(Cl)cc2)cc1
- GFP fluorescence (kMESF): 39.2 kMESF (inactive)

Compound: O=C1NC(=O)N(Cc2ccc(F)cc2)C(=O)/C1=C/c1cccs1
- GFP fluorescence (kMESF): 28.1 kMESF (inactive)

Compound: Cc1cc(Br)c2c(c1)/C(=C/C(=O)c1cccs1)C(=O)N2
- GFP fluorescence (kMESF): 38.7 kMESF (inactive)

Compound: N#Cc1c2ccc([N+](=O)[O-])cc2[n+]([O-])n1-c1ccccc1
- GFP fluorescence (kMESF): 27.6 kMESF (inactive)

Compound: N/C(Cc1ccc(Cl)cc1)=N\OC(=O)c1cccc2ccccc12
- GFP fluorescence (kMESF): 33 kMESF (inactive)

Compound: Cc1c(Cc2ccccc2)c(NCCN(C)C)n2c(nc3ccccc32)c1C#N
- GFP fluorescence (kMESF): 45.4 kMESF (inactive)

Compound: COc1ccccc1NC1=C(Cl)C(=O)N(c2ccccc2)C1=O
- GFP fluorescence (kMESF): 33 kMESF (inactive)

Compound: Nc1ccccc1SC(C[N+](=O)[O-])c1ccccc1 (stereo unspecified)
- GFP fluorescence (kMESF): 39.9 kMESF (inactive)

Compound: Cc1ccc(NC(=O)c2nc(S(=O)(=O)Cc3ccccc3)ncc2Cl)cc1
- GFP fluorescence (kMESF): 45.8 kMESF (inactive)

Compound: N/C(=N\OC(=O)c1ccccc1Cl)c1ccc(Cl)cc1
- GFP fluorescence (kMESF): 25.7 kMESF (inactive)

Compound: CC(C)[C@@]1(c2ccc(Cl)cc2)ON(c2ccccc2C(F)(F)F)C1=O
- GFP fluorescence (kMESF): 40.5 kMESF (inactive)

Compound: Cc1ccc(S(=O)(=O)c2ncccc2[N+](=O)[O-])cc1
- GFP fluorescence (kMESF): 47.1 kMESF (inactive)

Compound: CN(O)/C=c1/ccc2c(n1)C(=O)C=CC=2
- GFP fluorescence (kMESF): 39.5 kMESF (inactive)

Compound: COc1ccc2c(c1)c1nnc(SC)nc1n2C
- GFP fluorescence (kMESF): 17.9 kMESF (inactive)

Compound: CC1=CC(=O)C(C(C)C)=C/C1=N/OS(=O)(=O)c1ccccc1
- GFP fluorescence (kMESF): 36.5 kMESF (inactive)

Compound: Clc1ccc(N=c2ssnc2Cl)cc1
- GFP fluorescence (kMESF): 39.8 kMESF (inactive)

Compound: COc1cc(SSc2cc(OC)cc([N+](=O)[O-])c2N)c(N)c([N+](=O)[O-])c1
- GFP fluorescence (kMESF): 48.9 kMESF (inactive)

Compound: CC(Oc1ccc(Cl)cc1)C(=O)NNC(=S)NC(=O)c1ccco1 (stereo unspecified)
- GFP fluorescence (kMESF): 34.2 kMESF (inactive)

Compound: Nc1ccc2ccc3cccc[n+]3c2c1
- GFP fluorescence (kMESF): 42.9 kMESF (inactive)

Compound: CC(=O)N(C1=C(Cl)C(=O)c2ccccc2C1=O)C1CCCCC1
- GFP fluorescence (kMESF): -0.34 kMESF (inactive)

Compound: O=C(/C=C/c1ccc(F)cc1)NC(=S)NNC(=O)c1cnccn1
- GFP fluorescence (kMESF): 35.8 kMESF (inactive)

Compound: CC1(C)C[C@H]2C=C(C=O)[C@]3(C=O)C[C@]3(C)[C@H]2C1
- GFP fluorescence (kMESF): 36.7 kMESF (inactive)

Compound: Cc1cccnc1Nc1nc(-c2ccccn2)cs1
- GFP fluorescence (kMESF): 31 kMESF (inactive)

Compound: O=C(Oc1c(Cl)cc(Cl)c2cccnc12)c1cccs1
- GFP fluorescence (kMESF): 25.9 kMESF (inactive)

Compound: CC(=O)Oc1cccc(N2C(=O)c3cccc4c([N+](=O)[O-])ccc(c34)C2=O)c1
- GFP fluorescence (kMESF): 31.2 kMESF (inactive)

Compound: Cc1ccc(/C=C/C(=O)c2ccc([N+](=O)[O-])o2)cc1
- GFP fluorescence (kMESF): 42.9 kMESF (inactive)

Compound: N/C(Cc1ccc(Cl)cc1Cl)=N\OC(=O)c1cccs1
- GFP fluorescence (kMESF): 27.9 kMESF (inactive)

Compound: Cc1cc(C)c(S(=O)(=O)ON2C(=O)c3ccccc3C2=O)cc1C
- GFP fluorescence (kMESF): 42.8 kMESF (inactive)

Compound: N/C(Cc1ccc(Cl)cc1)=N\OC(=O)c1ccccc1
- GFP fluorescence (kMESF): 23.8 kMESF (inactive)

Compound: O=[N+]([O-])c1cc(CN2CCN(c3cccc(C(F)(F)F)c3)CC2)c2cccnc2c1O
- GFP fluorescence (kMESF): 32.2 kMESF (inactive)

Compound: CCCCCCCCC/C(=N\O)c1ccccn1
- GFP fluorescence (kMESF): 34.8 kMESF (inactive)

Compound: O=c1/c(=C/c2cccc3ccccc23)sc2ncnn12
- GFP fluorescence (kMESF): 36.7 kMESF (inactive)

Compound: O=c1[nH]c(-c2ccccn2)nc(C(F)(F)F)c1Br
- GFP fluorescence (kMESF): 36.9 kMESF (inactive)

Compound: CCn1c(=O)c(C(=O)Nc2nc3ccccc3[nH]2)c(O)c2ccccc21
- GFP fluorescence (kMESF): 12.8 kMESF (inactive)
